From ChEMBL document CHEMBL5226302, “Small-Molecule Inhibitors Targeting the Canonical WNT Signaling Pathway for the Treatment of Cancer” (J Med Chem, 2021)

How the values were obtained:
[1] = Inhibition of CTP (unknown origin); parameters: species or system Homo sapiens
[2] = Binding affinity to Wnt/beta catenin (unknown origin) assessed as inhibition constant at 20 uM; parameters: species or system Homo sapiens

- IC50 [1]: 8.4 µM
- Ki [2]: 10.5 µM
SMILES: COC(=O)c1c(-c2ccc(OC)cc2)n(C)c2c(=O)oc3ccccc3c12
